In ChEMBL document CHEMBL1201862, “PubChem BioAssay data set” (2004):
Active and inactive are the calls of the source.

Legend:
[1] = inhibitors of SNCA 5'UTR-driven reporter translation, confirmation, H4 neuroglioma cells, luminescence (AID 1988); assay type: functional, cell-based
[2] = Luminescence Cell-Based Dose Response HTS to Identify Inhibitors of 5'UTR Stem-Loop Driven Prion Protein mRNA Translation in H4 Neuroglioblastoma Cells. [Related pubchem assays: 1827 (Project Summary), 1813 (Primary HTS)]; assay type: functional
[3] = inhibitors of firefly luciferase expression or activity, dose response, H4 neuroglioma cells, luminescence (AID 1990); assay type: functional, cell-based
[4] = target: Cytochrome P450 2C19 (Homo sapiens, UniProt P33261); assay: Cytochrome panel assay with activity outcomes. Panel member name: p450-cyp2c19 Compounds with AC50 equal or less than 10 uM are considered active; assay type: functional
Sequence of Cytochrome P450 2C19 (P33261 whole entry): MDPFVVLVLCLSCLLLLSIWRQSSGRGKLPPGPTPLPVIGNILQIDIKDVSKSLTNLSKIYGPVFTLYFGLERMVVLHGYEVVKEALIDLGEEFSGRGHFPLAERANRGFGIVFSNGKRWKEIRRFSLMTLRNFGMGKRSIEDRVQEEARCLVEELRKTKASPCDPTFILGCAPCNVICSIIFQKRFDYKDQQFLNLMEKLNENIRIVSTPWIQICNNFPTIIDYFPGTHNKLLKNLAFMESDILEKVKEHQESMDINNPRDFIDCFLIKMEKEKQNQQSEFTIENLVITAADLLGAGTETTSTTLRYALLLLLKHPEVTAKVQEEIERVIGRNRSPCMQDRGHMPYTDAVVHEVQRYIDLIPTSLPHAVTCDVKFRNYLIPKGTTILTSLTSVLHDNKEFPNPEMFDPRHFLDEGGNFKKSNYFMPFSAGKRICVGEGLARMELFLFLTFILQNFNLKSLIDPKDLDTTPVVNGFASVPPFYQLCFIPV

[5] = cytotoxicity toward NIH3T3 fibroblasts, dose response, counter-screen, cell-based, ATP luminescence, mouse fibroblasts (AID 2010); assay type: functional;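 also: cells exposed to compound for about 90 hours before reading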
[6] = inhibitors of intracellular T. cruzi replication, confirmation, NIH3T3 host cells, beta-gal luminescence (AID 2044); assay type: functional, cell-based;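 also: intracellular parasites grown in NIH/3T3 mouse fibroblasts as host cells; luminescent beta-galactosidase reporter signal from transgenic T. cruzi replicating inside host cells; inhibitors lower the luminescence signal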
[7] = target: Cytochrome P450 2D6 (Homo sapiens, UniProt P10635);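 also: CYP2D6 member of a cytochrome P450 panel assay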
Sequence of Cytochrome P450 2D6 (P10635 whole entry): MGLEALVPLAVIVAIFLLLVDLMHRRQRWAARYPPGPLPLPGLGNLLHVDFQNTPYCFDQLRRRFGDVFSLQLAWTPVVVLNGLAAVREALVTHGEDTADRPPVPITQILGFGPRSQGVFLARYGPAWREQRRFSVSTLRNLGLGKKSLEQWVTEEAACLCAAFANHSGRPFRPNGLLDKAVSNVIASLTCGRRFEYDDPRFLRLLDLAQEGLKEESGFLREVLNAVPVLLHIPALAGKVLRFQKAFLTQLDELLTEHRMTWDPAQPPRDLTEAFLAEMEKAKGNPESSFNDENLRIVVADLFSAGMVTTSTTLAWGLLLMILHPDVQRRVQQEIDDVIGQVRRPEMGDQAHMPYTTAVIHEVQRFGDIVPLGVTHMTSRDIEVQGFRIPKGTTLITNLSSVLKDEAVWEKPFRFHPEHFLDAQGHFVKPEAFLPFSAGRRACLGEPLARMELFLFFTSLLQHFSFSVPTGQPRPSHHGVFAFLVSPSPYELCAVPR

[8] = test system: Streptococcus; assay: Group A Streptococcus viability loss, dose response, counter-screen for streptokinase expression inhibitor project, luminescence, BacTiterGlo (AID 1915); assay type: functional, organism-based;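 also: potency for reduction of bacterial viability or growth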
[9] = test system: Streptococcus sp. 'group A'; assay: growth inhibition of control SK(-) GAS strain, dose response, counter-screen for streptokinase expression inhibitor project, luminescence, kanamycin, BacTiterGlo, confirmation (AID 1900); assay type: functional, organism-based
[10] = target: T1, Cytochrome P450 1A2 (Homo sapiens, UniProt P05177);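 also: PubChem cytochrome P450 panel assay, CYP1A2 panel member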
T1 sequence (P05177 whole entry): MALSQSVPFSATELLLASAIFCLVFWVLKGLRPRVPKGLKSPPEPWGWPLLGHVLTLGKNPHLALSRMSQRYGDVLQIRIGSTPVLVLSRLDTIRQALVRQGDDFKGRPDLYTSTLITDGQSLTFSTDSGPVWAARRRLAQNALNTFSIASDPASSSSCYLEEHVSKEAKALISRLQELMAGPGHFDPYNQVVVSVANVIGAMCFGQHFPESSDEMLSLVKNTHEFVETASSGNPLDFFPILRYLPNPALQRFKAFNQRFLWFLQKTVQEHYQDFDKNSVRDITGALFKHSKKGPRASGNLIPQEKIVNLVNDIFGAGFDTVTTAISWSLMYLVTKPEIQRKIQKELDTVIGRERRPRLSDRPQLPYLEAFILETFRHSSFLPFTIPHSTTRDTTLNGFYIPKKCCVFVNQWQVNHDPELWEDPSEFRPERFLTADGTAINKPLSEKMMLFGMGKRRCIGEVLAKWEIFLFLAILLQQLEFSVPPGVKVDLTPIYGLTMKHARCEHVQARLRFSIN

SMILES: COc1cc(O)nc(SCc2c(F)c(F)c(F)c(F)c2F)n1
- EC50 [1]: 66.4 µM (active)
- EC50 [2]: 13.9 µM (active)
- EC50 [3]: > 120 µM (not active)

SMILES: Cc1ccc(-n2ncc3c2ncn2nc(-c4ccco4)nc32)c(C)c1
- AC50 ([4]; read-out: AC50): 17.8 µM (inconclusive)

SMILES: O=C(CN1C2=NCCCN2c2ccccc21)c1ccc([N+](=O)[O-])cc1
- EC50 [5]: > 60 µM (not active)
- EC50 [6]: 0.436 µM (active)

SMILES: Cc1cc(C)c(S(=O)(=O)c2ccccc2C)c(Cl)n1
- EC50 [5]: > 60 µM (not active)
- EC50 [6]: 2.05 µM (active)

SMILES: C[C@H](N)c1cccc(Cl)c1Cl
- AC50 [7]: 31.6 µM (inconclusive)

SMILES: CCc1nnc(NC(=O)CCC(=O)NCc2ccccc2OC)s1
- AC50 [7]: 17.8 µM (inconclusive)

SMILES: O=C(NNC(=S)NC(=O)c1cccc([N+](=O)[O-])c1)c1ccc(Br)cc1
- EC50 [8]: 6.56 µM (active)
- EC50 [9]: 1.14 µM (active)

SMILES: Oc1c[n+](CCCC[n+]2cc(O)on2)no1
- AC50 [4]: inconclusive

SMILES: CN(C(=O)CSc1nc(O)c(C#N)c(-c2ccc(C(C)(C)C)cc2)n1)C1CCCCC1
- EC50 [8]: 20.3 µM (active)

SMILES: O=C(CSc1ncnc2c1nnn2Cc1ccc(F)cc1)NC1CCCCC1
- EC50 [5]: > 60 µM (not active)
- EC50 [6]: 4.08 µM (active)

SMILES: NC(=O)c1cccc(N)c1 [3-AMINOBENZAMIDE]
- AC50 [10]: 39.8 µM (inconclusive)
- AC50 [7]: 20 µM (inconclusive)

SMILES: COc1ccc(CC(=O)NCCN2CCCC2)cc1
- AC50 [7]: 28.2 µM (inconclusive)

SMILES: CCOc1ccccc1NC(=O)c1cc(-c2ccncc2)nc2c(Cl)cccc12
- EC50 [5]: 21.2 µM (active)
- EC50 [6]: 1.97 µM (active)

SMILES: COc1ccc(NC(=O)CC2C(=O)N(CCc3ccccc3)C(=S)N2Cc2cccnc2)cc1 (stereo unspecified)
- EC50 [5]: > 60 µM (inconclusive)
- EC50 [6]: 2.03 µM (active)

SMILES: O=C(N/N=C/c1cc2c(cc1Br)OCO2)c1c[nH]c2ccccc12
- EC50 [5]: > 60 µM (inconclusive)
- EC50 [6]: 2.52 µM (active)

SMILES: Cc1cc(C)c(S(=O)(=O)Nc2ccccc2C(F)(F)F)c(C)c1
- AC50 [10]: 31.6 µM (inconclusive)

SMILES: O=C(NC(Cc1c[nH]c2ccccc12)c1nnc2n1CCCCC2)c1ccccc1 (stereo unspecified)
- AC50 ([4]; read-out: AC50): 17.8 µM (inconclusive)

SMILES: CCCCN(C)CCCNC(=O)c1ccc(N2CCCC2=O)cc1
- AC50 [10]: 0.126 µM (inconclusive)

SMILES: CO[C@@H]1COC(=O)[C@H]2CCCN2C(=O)[C@@H](C)COC(=O)CCC[C@H]1C
- AC50 [4]: inconclusive

SMILES: OC[C@@H]1O[C@H](n2cnc3c(/C=C(\O)c4ccccc4)ncnc32)[C@H](O)[C@@H]1O
- AC50 [10]: 0.501 µM (inconclusive)

SMILES: CC(C)c1cc(CN(C)C)c(O)c(C(C)(C)C)c1
- AC50 [7]: 6.31 µM (inconclusive)

SMILES: O=C(c1c[nH]c(C(=O)N2CCN(c3ccccc3F)CC2)c1)c1cccc(Cl)c1Cl
- EC50 [5]: 2.1 µM (active)
- EC50 [6]: 2.69 µM (active)

SMILES: CN(C)c1ccc(-c2ccc3ncnc(N(C)Cc4ccco4)c3c2)cc1
- AC50 [7]: 25.1 µM (inconclusive)

SMILES: COc1ccc(C)cc1NC(=O)CSc1nnc(-c2ccc(OC)c(OC)c2)n1N
- AC50 [10]: 11.2 µM (inconclusive)
- AC50 ([4]; read-out: AC50): 28.2 µM (inconclusive)

SMILES: O=C(NC1CCCCCC1)c1cccs1
- AC50 [7]: 12.6 µM (inconclusive)
- AC50 ([4]; read-out: AC50): 3.98 µM (inconclusive)

SMILES: O=C(Nc1nc2c(F)cc(F)cc2s1)C1CC1
- EC50 [5]: > 60 µM (not active)
- EC50 [6]: 0.305 µM (active)

SMILES: Cc1ccccc1Cn1cnc2c(cnn2C(C)(C)C)c1=O
- AC50 [7]: 35.5 µM (inconclusive)

SMILES: CCCCSc1nnc(-c2ccc(C)cc2)n1C
- AC50 [10]: 28.2 µM (inconclusive)

SMILES: O=C(Nc1ccccc1)N(Cc1ccccc1)CC(O)C(F)(F)F (stereo unspecified)
- AC50 [10]: 17.8 µM (inconclusive)

SMILES: Cc1cc(C)c[n+](CC(=O)c2cc3ccccc3oc2=O)c1
- AC50 [10]: 22.4 µM (inconclusive)
- AC50 [7]: 11.2 µM (inconclusive)

SMILES: OCC1(CCCc2ccccc2)CCN(Cc2cnc(N3CCOCC3)s2)CC1
- EC50 [5]: > 60 µM (not active)
- EC50 [6]: 1.2 µM (active)

SMILES: Cn1c(=O)c2nc(CSCc3ccccc3)[nH]c2n(C)c1=O
- AC50 [4]: inconclusive

SMILES: CCC(=O)Nc1nc2ccc([N+](=O)[O-])cc2s1
- EC50 [5]: > 60 µM (not active)
- EC50 [6]: 0.241 µM (active)

SMILES: N=c1c2c(-c3ccccc3)c(-c3ccccc3)n(Cc3ccco3)c2ncn1CCCO
- EC50 [5]: 11.3 µM (active)
- EC50 [6]: 1.33 µM (active)

SMILES: O=C(O)COc1ccccc1/C=N/NC(=O)c1cc2ccccc2cc1O
- EC50 [1]: 18.7 µM (active)
- EC50 [2]: > 120 µM (not active)
- EC50 [3]: > 120 µM (not active)

SMILES: CSc1cccc(NC(=S)N(Cc2ccc(C)cc2)Cc2ccccn2)c1
- EC50 [5]: > 60 µM (not active)
- EC50 [6]: 0.483 µM (active)

SMILES: COc1ccccc1NS(=O)(=O)c1cccc(C(=O)N/N=C/c2cn(-c3ccccc3)nc2-c2ccccc2)c1
- EC50 [1]: > 120 µM (not active)
- EC50 [2]: > 120 µM (not active)
- EC50 [3]: > 120 µM (not active)

SMILES: CC(C)CN(C(=O)COC(=O)c1c(Cl)ccc(Cl)c1Cl)C1CCS(=O)(=O)C1 (stereo unspecified)
- EC50 [1]: > 120 µM (not active)
- EC50 [2]: > 120 µM (not active)
- EC50 [3]: > 120 µM (not active)

SMILES: CCOC(=O)c1[nH]c(Cc2[nH]c(C(=O)OCC)c(C)c2CCC(=O)OC)c(CCC(=O)OC)c1C
- EC50 [1]: 12.1 µM (active)
- EC50 [2]: 21.2 µM (active)
- EC50 [3]: > 120 µM (not active)

SMILES: CC(C)n1c2ccccc2c2cc([N+](=O)[O-])ccc21
- EC50 [1]: 34.3 µM (active)
- EC50 [2]: > 120 µM (not active)
- EC50 [3]: 14.8 µM (active)

SMILES: COc1cccc(Cn2c(=O)c(C)nc3cnc(OCc4ccccc4)nc32)c1
- AC50 [7]: 20 µM (inconclusive)

SMILES: CN(Cc1ccco1)c1ccnc(-c2ccccc2C(F)(F)F)n1
- AC50 [7]: 25.1 µM (inconclusive)

SMILES: O=C(Nc1ccc([N+](=O)[O-])cc1)C(Cc1ccccc1)N1C(=O)c2cccc3cccc(c23)C1=O (stereo unspecified)
- EC50 [1]: > 120 µM (not active)
- EC50 [2]: > 120 µM (not active)
- EC50 [3]: > 120 µM (not active)

SMILES: Cc1nc(SCC(=O)Nc2c(C)nn(C)c2C)c2cnn(-c3ccccc3)c2n1
- AC50 ([4]; read-out: AC50): 28.2 µM (inconclusive)

SMILES: O=C(Cn1cc(C(F)(F)F)ccc1=O)N/N=C/c1cccc(Cl)c1Cl
- EC50 [1]: > 120 µM (not active)
- EC50 [2]: > 120 µM (not active)
- EC50 [3]: > 120 µM (not active)

SMILES: Cc1sc2ncn(CC(=O)NCCCC(=O)N3CCN(c4ncccn4)CC3)c(=O)c2c1C
- AC50 ([4]; read-out: AC50): 25.1 µM (inconclusive)

SMILES: COc1ccc(-c2nnc(CSc3nnc(-c4ccncc4)n3C3CCCCC3)o2)cc1OC
- EC50 [1]: 39.4 µM (active)
- EC50 [2]: > 120 µM (not active)
- EC50 [3]: 16.3 µM (active)

SMILES: Cc1oc(-c2ccccc2F)nc1CS(=O)(=O)CC(=O)NCCCN(C)C1CCCCC1
- AC50 [7]: 15.8 µM (inconclusive)

SMILES: CCN1CCN(c2nc(-c3ccncc3)nc3ccccc23)CC1
- EC50 [5]: > 60 µM (not active)
- EC50 [6]: 1.23 µM (active)

SMILES: O=C(NC1CCN(Cc2ccccc2)CC1)c1cc(Br)c(Br)[nH]1
- EC50 [1]: > 120 µM (not active)
- EC50 [2]: > 120 µM (not active)
- EC50 [3]: > 120 µM (not active)
- EC50 [5]: > 60 µM (not active)
- EC50 [6]: 0.539 µM (active)

SMILES: COc1ccc(CNc2ncnc3ccc(-c4cccnc4)cc23)c(OC)c1
- AC50 ([4]; read-out: AC50): 31.6 µM (inconclusive)

SMILES: N#CC(C#N)=CNCCN1CCN(C=C(C#N)C#N)CC1
- AC50 [4]: inconclusive

SMILES: CN(C)C(=O)c1ccc(-c2nc(N(C)Cc3ccco3)c3ccccc3n2)cc1
- AC50 [7]: 39.8 µM (inconclusive)
- AC50 ([4]; read-out: AC50): 31.6 µM (inconclusive)

SMILES: O=C(NCC1CCCO1)/C(=C\c1ccco1)NC(=O)c1ccccc1 (stereo unspecified)
- AC50 [10]: 14.1 µM (inconclusive)

SMILES: CCOC(=O)c1c(NC(=O)CN2CCCCC2)sc(CN(C)C)c1-c1ccccc1
- EC50 [5]: > 30 µM (not active)
- EC50 [6]: 1.11 µM (active)

SMILES: COc1ccccc1C(=O)C1CCCN(Cc2ccc(Oc3ncccn3)cc2)C1 (stereo unspecified)
- EC50 [5]: > 60 µM (not active)
- EC50 [6]: 0.178 µM (active)

SMILES: O=c1cnc2cnc(OCc3ccccc3)nc2n1Cc1ccc(F)cc1
- AC50 [7]: 39.8 µM (inconclusive)
- AC50 ([4]; read-out: AC50): 25.1 µM (inconclusive)
